Like-named read-outs stand apart in the source and are kept apart here.
Columns and labels:
HIV-1 WT RT = HIV-1 WT RT (Human immunodeficiency virus type 1 group M subtype B, UniProt P03366); test: biochemical; type: biochemical
HIV-1 WT virus (NL4-3) = test: microbe, parasite or virus in culture; type: cell-based; settings: for EC50: Human immunodeficiency virus 1, NL43, CEM-SS, read-out: EC50
Protocol: Evaluation of these compounds for the inhibition of HIV-1 was determined as the fifty percent cell culture inhibitory concentration (CIC50) in CEMSS cell culture with WT virus (NL4-3).
(§1) In this Example, the antiviral and cellular toxicity of NNRTIs was investigated, using the cytopathic cell killing assay described by Yang (Yang et al., “Characteristics of a Group of Non-nucleoside Reverse Transcriptase Inhibitors with Structural Diversity and Potent Anti-Human Immunodeficiency Virus Activity,” Leukemia 9:S75-S85 [1995]). Briefly, in this method cells (e.g., the CEM-SS cell line, available from the NIAID AIDS Research and Reference Program [ARRRP]) were seeded at a density of 5×10^3 cells/well, into the wells of a 96-well microtiter plate. The cells were then infected with HIV virus (either mutant or WT), at a multiplicity of infection (MOI) previously determined to provide complete cell killing by 6 days of culture post-infection (e.g., MOI of 0.01-0.05). Each of the HIV isolates was pre-titered to induce equivalent levels of infection based on cell killing or virus production, prior to their use in these assays. A range of test compound concentrations was added to the wells in triplicate (e.g., serial half-log dilutions) to evaluate inhibition of HIV infection. Controls for each assay included drug controls (drug colorimetric control wells), drug cytotoxicity control wells (cells with drug), virus control wells (cells with virus), and cell viability controls (cells only). Positive control drugs (e.g. AZT and ddC) were also run in parallel.
(§2) After six days of incubation at 37° C., cell viability was determined spectrophotometrically at 450 nm for each well, using the metabolic reduction of XTT to a soluble colored formazan. (See, Gartner and Popovic, “Virus Isolation and Production, in Aldovini and Walker (eds.), Techniques in HIV Research, Stockton Press, NY, pp. […] [1991]; and Nara and Fischinger, “Quantitative Infectivity Assay for HIV-1 and HIV-2, ” Nature 332:469-470 [1988]).
(§3) The in vitro therapeutic index (TI50) was defined as the fold-difference between the EC50 and IC50. The results for the various compounds are included in FIGS. 8 and 19.

HIV-1 NL4-3 (WT) = test: Cytopathic cell killing assay, MT-4 cells, isolate NL4-3 (WT); type: cell-based
Description: (§4) The various HIV isolates tested in the Figures are those corresponding to wild-type virus (NL4-3) and the other strains listed by their RT mutations. The three 4×AZT isolates included in the Figures represent AZT drug-resistant variants. For example, the 4×AZT/L100I isolate has five mutations: four mutations confer increased resistance to AZT, and the other mutation is located within the NNRTI binding pocket. TZB and nevir. (nevirapine) are two well-known NNRTIs, included in this experiment for comparison purposes.
as §1, §2, §3

HIV-1 isolate L100I = test: Cytopathic cell killing assay, MT-4 cells, isolate L100I; type: cell-based
Description: as §4, §1, §2, §3

HIV-1 isolate K103N = test: Cytopathic cell killing assay, MT-4 cells, isolate K103N; type: cell-based
Description: as §4, §1, §2, §3

HIV-1 isolate Y181C = test: Cytopathic cell killing assay, MT-4 cells, isolate Y181C; type: cell-based
Description: as §4, §1, §2, §3

HIV-1 isolate A98G = test: Cytopathic cell killing assay, MT-4 cells, isolate A98G; type: cell-based; settings: Human immunodeficiency virus 1, MT4, read-out: EC50, isolate A98G, Table 8; MT-4 cells
Description: as §4, §1, §2, §3

[1] = system: WT and HIV-1 variants containing amino acid substitutions in RT; type: cell-based; settings: cytopathic cell killing assay, NNRTI-resistant HIV isolates
Description: In these Tables, antiviral data are reported as the quantity of drug in μM required to reduce cell killing or virus production by 50% (EC50). The various HIV isolates tested in the Figures are those corresponding to wild-type virus (NL4-3) and the other strains listed by their RT mutations. The three 4×AZT isolates included in the Figures represent AZT drug-resistant variants.
Briefly, in this method cells (e.g., the CEM-SS cell line, available from the NIAID AIDS Research and Reference Program [ARRRP]) were seeded at a density of 5×10^3 cells/well, into the wells of a 96-well microtiter plate. The cells were then infected with HIV virus (either mutant or WT), at a multiplicity of infection (MOI) previously determined to provide complete cell killing by 6 days of culture post-infection (e.g., MOI of 0.01-0.05). Each of the HIV isolates was pre-titered to induce equivalent levels of infection based on cell killing or virus production, prior to their use in these assays. A range of test compound concentrations was added to the wells in triplicate (e.g., serial half-log dilutions) to evaluate inhibition of HIV infection. Controls for each assay included drug controls (drug colorimetric control wells), drug cytotoxicity control wells (cells with drug), virus control wells (cells with virus), and cell viability controls (cells only). Positive control drugs (e.g. AZT and ddC) were also run in parallel.
as §2
Antiviral and toxicity data were reported as the quantity of drug required to inhibit 50% of virus-induced cell killing or virus production (EC50), and the quantity of drug required to […] (IC50). The in vitro therapeutic index (TI50) was defined as the fold-difference between the EC50 and IC50.

HIV-1 isolate V179D = test: Cytopathic cell killing assay, MT-4 cells, isolate V179D; type: cell-based; settings: MT-4 cells
Description: as §4, §1, §2, §3

HIV-1 isolate K101E = test: Cytopathic cell killing assay, MT-4 cells, isolate K101E; type: cell-based; settings: Human immunodeficiency virus 1, MT4, read-out: EC50, isolate K101E, Table 8; MT-4 cells
Description: as §4, §1, §2, §3

[2] = Table 7, drug concentration required to reduce cell killing or virus production by 50%, WT
[3] = Table 11, CEMSS/NL4-3, NRVC = no reduction in viral CPE
[4] = Table 7, 1 μM drug, WT HIV-1 RT

## CN(C)c1cccc2c1nc(-c1c(F)cccc1F)n2Cc1c(F)cccc1F [Compound 3700, 1-(2,6-difluorobenzyl)-2-(2,6-difluorophenyl)-4-N,N-dimethylaminobenzimidazole]
HIV-1 WT RT; Table 7, 1 μM drug, WT HIV-1 RT, read-out: % inhibn (1 μM)
  inhibition at 1 µM: 77%
HIV-1 WT RT; read-out: IC50
  IC50: 40 µM
HIV-1 WT virus (NL4-3); [2]
  EC50: 2.37 µM
HIV-1 WT virus (NL4-3); [3]
  EC50: 2.37 µM
HIV-1 NL4-3 (WT); Human immunodeficiency virus 1, NL43, MT4, Table 10, values in μM, read-out: EC50, isolate NL4-3 (WT)
  EC50: 2.88 µM
HIV-1 isolate L100I; Human immunodeficiency virus 1, MT4, read-out: EC50, isolate L100I, Table 10, values in μM
  EC50: 31.6 µM
HIV-1 isolate K103N; Human immunodeficiency virus 1, MT4, read-out: EC50, isolate K103N, Table 10, values in μM
  EC50: > 100 µM
HIV-1 isolate Y181C; Human immunodeficiency virus 1, MT4, read-out: EC50, isolate Y181C, Table 10, values in μM
  EC50: > 100 µM
other
  melting point: 155 to 156 °C

## CC(=O)N(C)c1cccc2c1nc(-c1c(F)cccc1F)n2Cc1c(F)cccc1F [Compound 5011, 1-(2,6-difluorobenzyl)-2-(2,6-difluorophenyl)-4-(N-methylacetamido)benzimidazole]
HIV-1 WT RT
  IC50: 0.32 µM
HIV-1 WT RT; [4]
  % inhibn (1 μM): 77%
HIV-1 WT virus (NL4-3); [2]
  EC50: 0.02 µM
HIV-1 WT virus (NL4-3); text b130, cytopathic cell killing assay, WT
  EC50: 0.02 µM
HIV-1 WT virus (NL4-3); cytopathic cell killing assay
  fold more potent than the 4-methyl or 4-amino compounds (EC50): 20 fold
HIV-1 isolate A98G
  EC50: 0.1 µM
[1]; listed as N-methyl acetamido
  cross-resistance profile, result in words: inhibit HIV-1 better than TZB
[1]; listed as N-methylacetamido
  cross-resistance profile, result in words: equal or better against the various variants than nevirapine
other
  melting point: 155 to 156 °C

## CNc1cccc2c1nc(-c1c(F)cccc1F)n2Cc1c(F)cccc1F [Compound 5012, 1-(2,6-difluorobenzyl)-2-(2,6-difluorophenyl)-4-(N-methylamino)benzimidazole]
HIV-1 WT RT
  IC50: 4.94 µM
HIV-1 WT RT; [4]
  % inhibn (1 μM): 24%
HIV-1 WT virus (NL4-3); CEMSS cell culture, WT virus (NL4-3), relative to parent compounds 1 and 2
  inhibitory potency against HIV-1 (CIC50), result in words: significantly poorer inhibitors
HIV-1 WT virus (NL4-3); [2]
  EC50: 1.7 µM
HIV-1 WT virus (NL4-3); [3]
  EC50: 1.7 µM
HIV-1 isolate V179D; Human immunodeficiency virus 1, MT4, read-out: EC50, isolate V179D, Table 8
  EC50: 3.8 µM
[1]
  cross-resistance profile, result in words: inhibit HIV-1 better than TZB

## Nc1cccc2c1nc(-c1c(F)cccc1F)n2Cc1c(F)cccc1F [Example 53]
HIV-1 WT RT; Table 11, WT RT, read-out: IC50
  IC50: 0.28 µM
HIV-1 WT virus (NL4-3); [3]
  EC50: 0.46 µM
other
  melting point: 139 to 141 °C

## CC1Cn2c(=O)[nH]c3cccc(c32)CN1 (centres unmarked) [TIBO, 4,5,6,7-tetrahydro-5-methylimidazo[4,5,1-jk][1,4]benzodiazepin-2(1H)-one, reference compound]
HIV-1 isolate L100I; Human immunodeficiency virus 1, MT4, read-out: EC50, isolate L1001, Table 4, MT-4 cells
  EC50: ≥ 17.4 µM

## Cc1ccnc2c1NC(=O)c1cccnc1N2C1CC1 [nevir., nevirapine, reference compound]
HIV-1 WT virus (NL4-3); [3]
  EC50: 0.035 µM
HIV-1 NL4-3 (WT); Human immunodeficiency virus 1, NL43, MT4, Table 8, MT-4 cells, read-out: EC50, isolate NL4-3
  EC50: 0.04 µM
HIV-1 isolate K101E
  EC50: 1.1 µM
HIV-1 isolate K103N; cytopathic cell killing assay
  activity against K103N, result in words: ineffective
HIV-1 isolate V179D; Human immunodeficiency virus 1, MT4, read-out: EC50, isolate V179D, Table 9
  EC50: 0.2 µM
HIV-1 isolate Y181C; Human immunodeficiency virus 1, MT4, read-out: EC50, isolate Y181C, Table 8, MT-4 cells
  EC50: 4.9 µM
